From US11427615B2, “Peptide compound and application thereof, and composition containing peptide compound” (XDCEXPLORER (SHANGHAI) CO., LTD., priority 2017, dated 2022)
Starred links: 1 amine or outer side, 2 acyl side, 3 side chain; linkers in the order of their positions; H or OH if unused. Positions of bridges follow the written chain, without caps; N, C: chain ends. Non-standard residues stand in square brackets, D forms with d. Residues, ends and D or L forms follow the SMILES beside them. *: point of attachment. dPhe(2,4-Cl2) = N[C@H](Cc1ccc(Cl)cc1Cl)C(=O)O; Dnp = O=[N+]([O-])c1ccc(*)c([N+](=O)[O-])c1; dPhe(4-Cl) = N[C@H](Cc1ccc(Cl)cc1)C(=O)O; Ala(2-furyl) = N[C@@H](Cc1ccco1)C(=O)O; Phe(4-F) = N[C@@H](Cc1ccc(F)cc1)C(=O)O; Phe(4-Me) = Cc1ccc(C[C@H](N)C(=O)O)cc1; Pro(4,4-F2) = O=C(O)[C@@H]1CC(F)(F)CN1; dAla(2-furyl) = N[C@H](Cc1ccco1)C(=O)O; dPhe(4-F) = N[C@H](Cc1ccc(F)cc1)C(=O)O; Arg(Me) = CNC(=N)NCCC[C@H](N)C(=O)O; Hyp = O=C(O)[C@@H]1C[C@@H](O)CN1; Tic = O=C(O)[C@@H]1Cc2ccccc2CN1; 2Thi = N[C@@H](Cc1cccs1)C(=O)O; αMeL = CC(C)C[C@](C)(N)C(=O)O; S5 = C=CCCC[C@](C)(N)C(=O)O; X15 = CN(NC(=O)[*:2])[*:1]; Pip = O=C(O)[C@@H]1CCCCN1; Ac6c = NC1(C(=O)O)CCCCC1; Aze = O=C(O)[C@@H]1CCN1; Dap = NC[C@H](N)C(=O)O; azaGly = NNC(=O)O; βAla = NCCC(=O)O

These compounds were tested against T1, human kiss1 receptor (GPR54) (Homo sapiens, UniProt Q969F8) (assay: Kiss1 receptor (GPR54) binding activity of agonists, FRET detection in NFAT-bla CHO-K1 cells). Conditions: GPR54; measured according to the method of effect Embodiment 1; preliminary data; read-out: Preliminary measurement data (GPR54) EC50.
T1 construct: host or cells: NFAT-bla CHO-K1 cells (Chinese hamster ovary), purchased recombinant cell line
Assay type: cell-based
Procedure: Effect Embodiment 1 Determination of Kiss1 Receptor (GPR54) Binding Activity of Kiss1 Receptor (GPR54) Agonist
The binding activity test of each compound from the above the embodiments with kiss1 receptor (GPR54) was performed by fluorescence energy resonance transfer (FRET) detection technology to detect EC50 values of polypeptides and peptide analogs. The cells used in this experiment were NFAT-bla CHO-K1 cells (k1720, invitrogen, thermosher) that express human kiss1 receptor (GPR54). The specific operations were as follows:
Day 1: Seeding Cells in Plate
1. Microscope (CKX41, OLYMPUS), object lens×4 times, ocular lens×10 times. The cells were ensured in a good condition.
2. Digesting the cells, adding 3 ml of 0.05% pancreatin into a culture dish; cells were placed in a 37° C., 5% CO2 incubator for 2 minutes (Thermo Fisher). After the cells became round under the microscope, 7 ml of culture medium was added. The formula of culture medium was as follows: DMEM 90%, dialzedfbS10, NEAA 0.1 mM, HEPES 25 mM, Penicillin 100 U/ml, Streptomycin 100 μm/ml, pH7.3. After blowing and stirring, it was transferred to 15 mL centrifuge tube (430790, Corning). Centrifuge at 1000 rpm for 5 min (5810R, Eppendorf) and the supernatant was discard.
3. Adding 7 mL of culture medium (DMEM+0.1% BSA), it was pipetting into single cell suspension, after counting with Bio-RAD counter, the cell density was adjusted to 312,500 cells/ml.
4. Cells were inoculated into 384 well plates at 32 μL per well, and the cell number was controlled at 10000 cells/well. 32 μl of culture medium was added into the blank control.
Day 2: Dosing and Data Analysis
1) The compound to be tested was prepared into 50 mM working solution with DMSO.
2) 40 μl of the working solution of the compound to be tested was added into column 2 of row A-H of U-shaped 96-well plate (3797, comings), and 60 μl of DMSO was added into column 3-11. 20 μl of compound solution was sucked from the second column to the third column with a multichannel pipette blowing and stirring evenly; 20 μl of compound solution was absorbed from the third column with a multichannel pipette, then added into the fourth column, blowed and stirred to mix well; the compound was serially diluted 4-fold to a total of 10 concentrations. Column 1 and column 12 of 96-well plates were supplemented with 40 μl DMSO.
2. Intermediate Plate Configuration
1) AU-shaped 96-well plate was used, 199 μL of culture medium (DMEM+0.1% BSA) was added to each well, 1 μL of diluted compound (or DMSO) was sucked from 1000× compound plate and added into the 96-well plate at the corresponding position, blowed and stirred to mix well.
2) Homemade positive compounds and compounds to be tested were added. The cell culture plate was took out from the incubator and cells state was observed under microscope. Diluted compound in the intermediate plate or DMSO was added into the cell, 8 μl per well.
3) Cells were cultured in 37° C. and 5% CO2 for 4 hours.
3. The Substrate was Added to Detect the Binding of the Drug to the Receptor
1) 1 μmol/L CCF-4AM solution and buffer solution B, C, D were equilibrated to room temperature. LiveBLAZER™-FRET B/G Loading Kit (K1095, thermo Fisher) containing CCF-4AM and solution B, solution C, solution D were also available from Invitrogen (K1157, thermo Fisher).
2) 6× loading solution was prepared: 6 μl of CCF-4AM dissolved solution A, 60 μl of solution b, 904 μl of solution c, and 30 μl of solution D were pipetted into EP tube, blowed and stirred to mix well.
3) 8 μl of the above-mentioned liquid was sucked with a multichannel pipette, added into a 96-well plate, and incubated for 2 hours at room temperature.
4) The PerkinElmer detector was used to detect the luminous signals of each hole. FI mode, λex=409 nm, λem1=460 nm, λem2=530 nm.
4. Data Processing Using Graphpad Prism 5 (GraphPad Software. Inc)
Effective rate %=(Signal−Min)/(Max−Min)×100%.

T1 sequence (Q969F8 whole entry): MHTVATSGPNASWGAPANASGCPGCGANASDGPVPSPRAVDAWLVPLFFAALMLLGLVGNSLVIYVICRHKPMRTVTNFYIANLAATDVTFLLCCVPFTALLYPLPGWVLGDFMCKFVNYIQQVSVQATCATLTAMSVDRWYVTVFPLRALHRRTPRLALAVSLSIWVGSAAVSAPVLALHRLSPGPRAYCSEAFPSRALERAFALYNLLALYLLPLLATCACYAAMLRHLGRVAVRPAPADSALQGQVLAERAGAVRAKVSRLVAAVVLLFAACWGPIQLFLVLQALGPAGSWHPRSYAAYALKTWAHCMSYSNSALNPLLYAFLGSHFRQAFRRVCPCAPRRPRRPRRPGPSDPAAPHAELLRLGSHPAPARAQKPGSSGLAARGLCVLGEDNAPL

Compound	EC50
CNC(=N)NCCC[C@H](NC(=O)[C@H](CC(C)C)NC(=O)[C@@H]1CCN1C(=O)[C@H](Cc1ccccc1)NC(=O)[C@@H](NC(=O)[C@H](CC(N)=O)NC(=O)[C@@H]1C[C@@H](O)CN1C(=O)[C@@H](Cc1ccc(Cl)cc1Cl)NC(C)=O)[C@@H](C)O)C(=O)N[C@@H](Cc1c[nH]c2ccccc12)C(N)=O [YA-188, Ac-[D-Phe(2,4-DiCl)]-Hyp-Asn-Thr-Phe-Aze-Leu-Arg(Me)-Trp-NH2] (Ac-[dPhe(2,4-Cl2)][Hyp]NTF[Aze]L[Arg(Me)]W-NH2)	0.477 nM
CC(=O)N[C@@H](Cc1ccc(O)cc1)C(=O)N[C@@H](CC(N)=O)C(=O)N[C@@H](Cc1c[nH]c2ccccc12)C(=O)N[C@@]1(C)CCCC=CCCC[C@@](C)(C(=O)N[C@@H](CCCNC(=N)N)C(=O)N[C@@H](Cc2ccccc2)C(N)=O)NC(=O)CNC(=O)[C@H](Cc2ccccc2)NC(=O)[C@H](CO)NC1=O [YA-146, Ac-Tyr-Asn-Trp-X-Ser-Phe-Gly-X-Arg-Phe-NH2 (stapled)] (Ac-YNW[S5]SFG[S5]RF-NH2; staple 4-8)	545 nM
CNC(=N)NCCC[C@H](NC(=O)[C@H](CC(C)C)NC(=O)C1(NC(=O)[C@H](Cc2ccccc2)NC(=O)[C@@H](NC(=O)[C@H](CC(N)=O)NC(=O)[C@H](Cc2cccs2)NC(=O)[C@@H](Cc2ccc(F)cc2)NC(C)=O)[C@@H](C)O)CCCCC1)C(=O)N[C@@H](Cc1c[nH]c2ccccc12)C(N)=O [YA-199, Ac-[D-Phe(4-F)]-Thi-Asn-Thr-Phe-A6c-Leu-Arg(Me)-Trp-NH2] (Ac-[dPhe(4-F)][2Thi]NTF[Ac6c]L[Arg(Me)]W-NH2)	15.6 nM
CNC(=N)NCCC[C@H](NC(=O)[C@H](CC(C)C)NC(=O)[C@@H]1CCN1C(=O)[C@H](Cc1ccccc1)NC(=O)[C@H](Cc1ccco1)NC(=O)[C@H](CC(N)=O)NC(=O)[C@@H]1C[C@@H](O)CN1C(=O)[C@@H](Cc1ccc(O)cc1)NC(C)=O)C(=O)N[C@@H](Cc1c[nH]c2ccccc12)C(N)=O [YA-203, Ac-(D-Tyr)-Hyp-Asn-2Fua-Phe-Aze-Leu-Arg(Me)-Trp-NH2] (Ac-[dY][Hyp]N[Ala(2-furyl)]F[Aze]L[Arg(Me)]W-NH2)	1.19 nM
CNC(=N)NCCC[C@H](NC(=O)[C@H](CC(C)C)NC(=O)NNC(=O)[C@H](Cc1ccccc1)NC(=O)[C@@H](NC(=O)[C@H](CC(N)=O)NC(=O)[C@@H]1C[C@@H](O)CN1C(=O)[C@H](Cc1ccc(C)cc1)NC(C)=O)[C@@H](C)O)C(=O)N[C@@H](Cc1c[nH]c2ccccc12)C(N)=O [YA-74, Ac-Phe(4-Me)-Hyp-Asn-Thr-Phe-azaGly-Leu-Arg(Me)-Trp-NH2] (Ac-[Phe(4-Me)][Hyp]NTF[azaGly]L[Arg(Me)]W-NH2)	0.921 nM
CNC(=N)NCCC[C@H](NC(=O)[C@H](CC(C)C)NC(=O)NNC(=O)[C@H](Cc1ccccc1)NC(=O)[C@@H](NC(=O)[C@H](CC(N)=O)NC(=O)[C@@H]1CCCCN1C(=O)[C@@H](Cc1ccc(O)cc1)NC(C)=O)[C@@H](C)O)C(=O)N[C@@H](Cc1c[nH]c2ccccc12)C(N)=O [YA-85, Ac-D-Tyr-(S-Pip)-Asn-Thr-Phe-azaGly-Leu-Arg(Me)-Trp-NH2] (Ac-[dY][Pip]NTF[azaGly]L[Arg(Me)]W-NH2)	0.026 nM
CNC(=N)NCCC[C@H](NC(=O)[C@H](CC(C)C)NC(=O)NNC(=O)[C@H](Cc1ccccc1)NC(=O)[C@@H](NC(=O)[C@H](CC(N)=O)NC(=O)[C@@H]1C[C@@H](O)CN1C(=O)[C@H](Cc1ccc(F)cc1)NC(C)=O)[C@@H](C)O)C(=O)N[C@@H](Cc1c[nH]c2ccccc12)C(N)=O [YA-71, Ac-Phe(4-F)-Hyp-Asn-Thr-Phe-azaGly-Leu-Arg(Me)-Trp-NH2] (Ac-[Phe(4-F)][Hyp]NTF[azaGly]L[Arg(Me)]W-NH2)	0.058 nM
CNC(=N)NCCC[C@H](NC(=O)[C@H](CC(C)C)NC(=O)[C@@H]1CCN1C(=O)[C@H](Cc1ccccc1)NC(=O)[C@@H](NC(=O)[C@H](CC(N)=O)NC(=O)[C@@H]1C[C@@H](O)CN1C(=O)[C@@H](Cc1ccc(O)cc1)NC(C)=O)[C@@H](C)O)C(=O)N[C@@H](Cc1c[nH]c2ccccc12)C(N)=O [YA-153, Ac-D-Tyr-Hyp-Asn-Thr-Phe-Aze-Leu-Arg(Me)-Trp-NH2] (Ac-[dY][Hyp]NTF[Aze]L[Arg(Me)]W-NH2)	0.18 nM

Continued, values first:

EC50	Compound
90 nM	CNC(=N)NCCC[C@H](NC(=O)[C@H](CC(C)C)NC(=O)C1(NC(=O)[C@H](Cc2ccccc2)NC(=O)[C@@H](NC(=O)[C@H](CC(N)=O)NC(=O)[C@H](Cc2c[nH]c3ccccc23)NC(=O)[C@H](Cc2cccs2)NC(=O)[C@@H](Cc2ccc(Cl)cc2Cl)NC(C)=O)[C@@H](C)O)CCCCC1)C(=O)N[C@@H](Cc1c[nH]c2ccccc12)C(N)=O [YA-207, Ac-[D-Phe(2,4-DiCl)]-Thi-Trp-Asn-Thr-Phe-A6c-Leu-Arg(Me)-Trp-NH2] (Ac-[dPhe(2,4-Cl2)][2Thi]WNTF[Ac6c]L[Arg(Me)]W-NH2)
0.31 nM	CNC(=N)NCCC[C@H](NC(=O)[C@H](CC(C)C)NC(=O)NNC(=O)[C@H](Cc1ccccc1)NC(=O)[C@@H](NC(=O)[C@H](CC(N)=O)NC(=O)[C@@H]1C[C@@H](O)CN1C(=O)[C@@H](Cc1ccc(O)cc1)NC(=O)CCNC(=O)CCNC(=O)[C@H](CCC(N)=O)NC(=O)[C@@H]1CCCN1C(=O)[C@H](CCCNC(=N)N)NC(=O)[C@H](CCCNC(=N)N)NC(=O)[C@H](CCCNC(=N)N)NC(=O)[C@H](CCC(N)=O)NC(=O)[C@H](CCCNC(=N)N)NC(=O)[C@H](CCCNC(=N)N)NC(=O)[C@H](CCCCN)NC(=O)[C@H](CCCCN)NC(=O)[C@H](CCCNC(=N)N)NC(=O)CNC(C)=O)[C@@H](C)O)C(=O)N[C@@H](Cc1c[nH]c2ccccc12)C(N)=O [YA-291, Ac-Gly-Arg-Lys-Lys-Arg-Arg-Gln-Arg-Arg-Pro-Gln-(Beta-Ala)-(Beta-Ala)-(D-Tyr)-Hyp-Asn-Thr-Phe-Azag-Leu-Arg(Me)-Trp-NH2] (Ac-GRKKRRQRRRPQ[βAla][βAla][dY][Hyp]NTF[azaGly]L[Arg(Me)]W-NH2)
0.083 nM	CNC(=N)NCCC[C@H](NC(=O)[C@H](CC(C)C)NC(=O)NNC(=O)[C@H](Cc1ccccc1)NC(=O)[C@@H](NC(=O)[C@H](CC(N)=O)NC(=O)[C@@H]1C[C@@H](O)CN1C(=O)[C@@H](Cc1ccc(Cl)cc1)NC(C)=O)[C@@H](C)O)C(=O)N[C@@H](Cc1c[nH]c2ccccc12)C(N)=O [YA-214, Ac-[D-Phe(4-Cl)]-Hyp-Asn-Thr-Phe-azaGly-Leu-Arg(Me)-Trp-NH2] (Ac-[dPhe(4-Cl)][Hyp]NTF[azaGly]L[Arg(Me)]W-NH2)
0.78 nM	CNC(=N)NCCC[C@H](NC(=O)[C@H](CC(C)C)NC(=O)C1(NC(=O)[C@H](Cc2ccccc2)NC(=O)[C@@H](NC(=O)[C@H](CC(N)=O)NC(=O)[C@@H]2CC(F)(F)CN2C(=O)[C@@H](Cc2ccc(Cl)cc2Cl)NC(C)=O)[C@@H](C)O)CCCCC1)C(=O)N[C@@H](Cc1c[nH]c2ccccc12)C(N)=O [YA-248, Ac-[D-Phe(2,4-diCl)]-Pro(diF)-Asn-Thr-Phe-A6c-Leu-Arg(Me)-Trp-NH2] (Ac-[dPhe(2,4-Cl2)][Pro(4,4-F2)]NTF[Ac6c]L[Arg(Me)]W-NH2)
6.5 nM	CNC(=N)NCCC[C@H](NC(=O)[C@H](CC(C)C)NC(=O)C1(NC(=O)[C@H](Cc2ccccc2)NC(=O)[C@@H](NC(=O)[C@H](CC(N)=O)NC(=O)[C@@H]2CC(F)(F)CN2C(=O)[C@@H](Cc2ccco2)NC(C)=O)[C@@H](C)O)CCCCC1)C(=O)N1Cc2ccccc2C[C@H]1C(N)=O [YA-224, Ac-[3-(2-furyl)-D-Ala]-DifluoroPro-Asn-Thr-Phe-A6C-Leu-Arg(Me)-Tic-NH2] (Ac-[dAla(2-furyl)][Pro(4,4-F2)]NTF[Ac6c]L[Arg(Me)][Tic]-NH2)
0.5 nM	CNC(=N)NCCC[C@H](NC(=O)[C@H](CC(C)C)NC(=O)C1(NC(=O)[C@H](Cc2ccccc2)NC(=O)[C@@H](NC(=O)[C@H](CC(N)=O)NC(=O)[C@@H]2CC(F)(F)CN2C(=O)[C@@H](Cc2ccc(F)cc2)NC(C)=O)[C@@H](C)O)CCCCC1)C(=O)N[C@@H](Cc1c[nH]c2ccccc12)C(N)=O [YA-212, Ac-[D-Phe(4-F)]-Pro(diF)-Asn-Thr-Phe-A6c-Leu-Arg(Me)-Trp-NH2] (Ac-[dPhe(4-F)][Pro(4,4-F2)]NTF[Ac6c]L[Arg(Me)]W-NH2)

Same assay, conditions: NFAT-bla CHO-K1 cells that express human kiss1 receptor (GPR54); FRET; cells cultured with compound for 4 hours; read-out: GPR54 EC50/nM

EC50	Compound
0.69 nM	CNC(=N)NCCC[C@H](NC(=O)[C@H](CC(C)C)NC(=O)C1(NC(=O)[C@H](Cc2ccccc2)NC(=O)[C@@H](NC(=O)[C@H](CC(N)=O)NC(=O)C2(NC(=O)[C@@H](Cc3ccc(O)cc3)NC(C)=O)CCCCC2)[C@@H](C)O)CCCCC1)C(=O)N[C@@H](Cc1c[nH]c2ccccc12)C(N)=O [YA-243, Ac-D-Tyr-A6c-Asn-Thr-Phe-A6c-Leu-Arg(Me)-Trp-NH2] (Ac-[dY][Ac6c]NTF[Ac6c]L[Arg(Me)]W-NH2)

Same assay, conditions: Preliminary measurement data (GPR54) EC50, nM), GPR54; measured according to the method of effect Embodiment 1; preliminary data

Compound	EC50
CNC(=N)NCCC[C@H](NC(=O)[C@H](CC(C)C)NC(=O)NNC(=O)[C@H](Cc1ccccc1)NC(=O)[C@@H](NC(=O)[C@H](CC(N)=O)NC(=O)[C@@H]1C[C@@H](O)CN1C(=O)[C@H](CNc1ccc([N+](=O)[O-])cc1[N+](=O)[O-])NC(C)=O)[C@@H](C)O)C(=O)N[C@@H](Cc1c[nH]c2ccccc12)C(N)=O [YA-41, Ac-Dap(Dnp)-Hyp-Asn-Thr-Phe-azaGly-Leu-Arg(Me)-Trp-NH2] (Ac-[Dap](Dnp)[Hyp]NTF[azaGly]L[Arg(Me)]W-NH2)	0.095 nM

Same assay, conditions: human kiss1 receptor (GPR54), NFAT-bla CHO-K1 cells, FRET; preliminary data; method of effect Embodiment 1; read-out: Preliminary measurement data (GPR54) EC50

EC50	Compound
11 nM	CNC(=N)NCCC[C@H](NC(=O)[C@H](CC(C)C)NC(=O)NN(C)C(=O)[C@H](Cc1ccccc1)NC(=O)[C@@H](NC(=O)[C@H](CC(N)=O)NC(=O)[C@@H]1C[C@@H](O)CN1C(=O)[C@@H](Cc1ccc(O)cc1)NC(C)=O)[C@@H](C)O)C(=O)N[C@@H](Cc1c[nH]c2ccccc12)C(N)=O [YA-247, Ac-(D-Tyr)-Hyp-Asn-Thr-Phe-azaNMeGly-Leu-Arg(Me)-Trp-NH2] (Ac-[dY][Hyp]NTF[X15]L[Arg(Me)]W-NH2)
1.56 nM	CNC(=N)NCCC[C@H](NC(=O)[C@H](CC(C)C)NC(=O)[C@](C)(CC(C)C)NC(=O)[C@H](Cc1ccccc1)NC(=O)[C@@H](NC(=O)[C@H](CC(N)=O)NC(=O)[C@@H]1C[C@@H](O)CN1C(=O)[C@@H](Cc1ccc(O)cc1)NC(C)=O)[C@@H](C)O)C(=O)N[C@@H](Cc1c[nH]c2ccccc12)C(N)=O [YA-370, Ac-(D-Tyr)-Hyp-Asn-Thr-Phe-(α-Me-Leu)-Leu-Arg(Me)-Trp-NH2] (Ac-[dY][Hyp]NTF[αMeL]L[Arg(Me)]W-NH2)
